Reference: paper PMC12766724, “Synthesis, Anthelmintic Activity, and Mechanism of Action of 5‑Aryl‑1H‑indoles” (Journal of Agricultural and Food Chemistry, 2025)
Read-outs that look alike come from different tables or passages of the source. Each block holds one compound with its values, some of them ahead of it.

Legend:
[1] = tested on: Arabidopsis thaliana Col-0; assay: Germination rate and phytotoxicity; format: in vivo; details: for average fraction of germinated seeds: 5 DPS; for main root length / plant weight: 10 DPS
Description: Wild-type A. thaliana (Col-0 ecotype) seeds were sterilized with 70% EtOH with 0.1% Tween-20 solution (2 × 1 mL) for 10 min, rinsed with 96% EtOH (1 × 1 mL) for 10 min, and kept in the fridge (4 °C in the dark). Seeds were sown on a sterile 1/2 MS medium supplemented with 0.3% DMSO as a mock and test compounds at 5, 10, 50, and 100 μM concentrations in 0.3% DMSO. Plates were kept in long-day light conditions (22 °C/20 °C, 16 h light/8 h dark, 100 μmol m^–2 s^–1). After 5 days, the germination rate was evaluated. After an additional 5 days, primary root growth was measured with ImageJ software (https://imagej.nih.gov/ij/), and seedlings were weighted.

[2] = tested on: C. elegans N2 wild-type; assay: Chitinase assay (reproductive capacity); format: in vivo, Caenorhabditis elegans
Description: (§1) The effect of compounds on C. elegans was evaluated using the Chitinase assay as we described previously.
After exposing L1 larvae to the compounds for 4 days, we observed the populations under a microscope and measured the Chitinase activity. The larvae produce the enzyme while hatching, and its activity is indicative of the reproductive capacity of the worms. Populations that fail to reproduce due to acute or reproductive toxicity or developmental abnormalities are detected.

[3] = tested on: age unsynchronized Ditylenchus destructor; assay: Motility on WMicrotracker ONE; format: in vivo
Description: Populations of D. destructor, kindly provided by Central Institute for Supervising and Testing in Agriculture, the Ministry of Agriculture of the Czech Republic, were maintained according to the protocol previously described here.
(§2) The effect of compounds on motility of H. contortus, D. destructor, and H. schachtii was evaluated using the WMicrotracker ONE platform according to previously published protocols. ,
(§3) The instrument evaluates the activity of small animals by counting how many times infrared light microbeams passing through the wells of a microtiter plate are interrupted. In age-unsynchronized populations of D. destructor, we observed reduced motility of worm populations treated with the halogenated derivatives i-19, i-20, and i-21 (Figures A, S2.1A, S2.2A and Table S2.1). […] The decreases in mean activity counts after 72 h of treatment at 100 μM were 85% and 97%, respectively.

[4] = tested on: Skin fibroblasts (BJ); assay: Resazurin assay, 3-day treatment; format: cell-based, human; details: BJ
Description: Skin fibroblasts (BJ) were obtained from the American Type Culture Collection (ATCC, Manassas, VA), while human keratinocytes (HaCaT) were sourced from the German Cancer Research Center in Heidelberg, Germany. Cells were cultured in a standard DMEM medium from Sigma-Aldrich, supplemented with 10% fetal bovine serum, 2 mM glutamine, 100 U/mL penicillin, and 100 μg/mL streptomycin. Cultures were maintained under standard conditions (37 °C, 5% CO2, humidified atmosphere) and subcultured two to three times per week. We assessed the effect of 3-day compound treatments on cell viability using a resazurin reduction assay measuring mitochondrial activity. Approximately 5,000 cells in 80 μL of culture medium were seeded into the wells of a 96-well plate. Twenty-four hours later, 20 μL of 5-fold concentrated test compound solutions was added and tested across three concentrations prepared through 2-fold serial dilutions. The highest final concentration was 40 μM. After 72 h, we added an 11-fold concentrated resazurin solution to the wells, achieving a final concentration of 0.0125 μM. Fluorescence (ex = 570 nm, em = 610 nm) was measured after 3 h of incubation. […]

[5] = tested on: human keratinocytes (HaCaT); assay: Resazurin assay, 3-day treatment; format: cell-based
Description: Skin fibroblasts (BJ) were obtained from the American Type Culture Collection (ATCC, Manassas, VA), while human keratinocytes (HaCaT) were sourced from the German Cancer Research Center in Heidelberg, Germany. Cells were cultured in a standard DMEM medium from Sigma-Aldrich, supplemented with 10% fetal bovine serum, 2 mM glutamine, 100 U/mL penicillin, and 100 μg/mL streptomycin. Cultures were maintained under standard conditions (37 °C, 5% CO2, humidified atmosphere) and subcultured two to three times per week. We assessed the effect of 3-day compound treatments on cell viability using a resazurin reduction assay measuring mitochondrial activity. Approximately 5,000 cells in 80 μL of culture medium were seeded into the wells of a 96-well plate. Twenty-four hours later, 20 μL of 5-fold concentrated test compound solutions was added and tested across three concentrations prepared through 2-fold serial dilutions. The highest final concentration was 40 μM. After 72 h, we added an 11-fold concentrated resazurin solution to the wells, achieving a final concentration of 0.0125 μM. Fluorescence (ex = 570 nm, em = 610 nm) was measured after 3 h of incubation.
The disubstituted derivatives i-25 and i-27 were the most toxic in the set, causing around a 50% decrease in viability of HaCaT cells at 40 μM.

[6] = tested on: Heterodera schachtii second-stage juveniles (J2); assay: Motility on WMicrotracker ONE; format: in vivo
Description: H. schachtii was maintained on mustard (Sinapsis alba cv. Albatros) roots grown in vitro on modified KNOP medium according to the previously published protocols. ,
as §2, §3

[7] = tested on: C. elegans DA1316 avr-14(ad1305) I; avr-15(vu227) glc-1(pk54) V.; assay: Chitinase assay (reproductive capacity); format: in vivo; details: Caenorhabditis elegans; ivermectin-resistant strain
Description: (§4) C. elegans strains used in this study were N2 (wild-type), levamisole-resistant strains ZZ15 (lev-8(x15) X) and […] (lev-1(e211) IV), ivermectin-resistant strain DA1316 (avr-14(ad1305) I; avr-15(vu227) glc-1(pk54) V), mebendazole-resistant strain […] (ben-1(e1880) III), and three strains with mutations in succinate dehydrogenase, RP2699, RP2700, and RP2702. The worms were cultivated on Nematode Growth Medium agar plates seeded with Escherichia coli OP50 in 20 °C according to the standard cultivation protocols. Strains RP2699, RP2700, and RP2702 were generated by Prof. Peter Roy’s group. All other strains and bacteria were purchased from the Caenorhabditis Genetics Center (CGC, Minneapolis, MN).
as §1
(§5) Lastly, strain DA1316 has mutations in three genes encoding subunits of the glutamate-gated chloride channel and is highly resistant to avermectins.

[8] = tested on: C. elegans CB211 lev-1(e211) IV.; assay: Chitinase assay (reproductive capacity); format: in vivo; details: Caenorhabditis elegans; levamisole-resistant strain
Description: as §4, §1, §5

[9] = tested on: C. elegans ZZ15 lev-8(x15) X.; assay: Chitinase assay (reproductive capacity); format: in vivo; details: Caenorhabditis elegans; levamisole-resistant strain
Description: as §4, §1, §5

[10] = tested on: C. elegans CB3474 ben-1(e1880) III.; assay: Chitinase assay (reproductive capacity); format: in vivo; details: Caenorhabditis elegans; mebendazole-resistant strain
Description: as §4, §1, §5

[11] = tested on: C. elegans complex II mutant RP2702; assay: Scoring of developmental rates, L1 exposed 5 days; format: in vivo, Caenorhabditis elegans; details: 1 µM (control)
Source text: (§6) Dead or mostly immobile worms, arrested at the L1 stage, received a score of 1. Populations with severely delayed development were scored as 2. More developmentally advanced, but still obviously delayed worms were given the score of 3. Adult worms that produce a noticeably lower number of progeny received a score of 4. Healthy worms that reproduce normally (i.e., hundreds of eggs and larvae are present) were scored as 5 (see Figure C for representative images). In a typical, correctly prepared experiment, vehicle-treated populations should receive a score of 5, while worms treated with ivermectin (positive control) should receive a score of 1. […]

[12] = tested on: C. elegans complex II mutant RP2700; assay: Scoring of developmental rates, L1 exposed 5 days; format: in vivo, Caenorhabditis elegans; details: 1 µM (control)
Source text: as §6

[13] = tested on: C. elegans complex II mutant RP2699; assay: Scoring of developmental rates, L1 exposed 5 days; format: in vivo, Caenorhabditis elegans; details: 1 µM (control)
Source text: as §6

[14] = tested on: C. elegans N2; assay: Scoring of developmental rates, L1 exposed 5 days; format: in vivo, Caenorhabditis elegans; design: key: 1 = dead/arrested at L1 … 5 = healthy, normal reproduction; details: 1 µM (control)
Source text: as §6

[15] = 10 µM group, initial (prior to the treatment)
[16] = 50 µM group, initial (prior to the treatment)
[17] = 100 µM group, initial (prior to the treatment)

IC50 [2]: 7.93 ± 0.66 µM
IC50 ([2]; Caenorhabditis elegans): < 10 µM
IC50 [7]: 9.1 ± 2.21 µM
IC50 [8]: 8.86 ± 0.9 µM
IC50 [9]: 8.55 ± 1.04 µM
IC50 [10]: 10.2 ± 0.51 µM
SMILES: CC(C)Oc1cccc(-c2ccc3[nH]ccc3c2)c1 [i-15]
average fraction of germinated seeds ([1]; 5 µM): 0.98
main root length ([1]; 5 µM): 36.67 mm
plant weight ([1]; 5 µM): 35.21 mg
average fraction of germinated seeds ([1]; 10 µM): 0.93
main root length ([1]; 10 µM): 36.13 mm
plant weight ([1]; 10 µM): 31.55 mg
average fraction of germinated seeds ([1]; 50 µM): 0.95
main root length ([1]; 50 µM): 35.01 mm
plant weight ([1]; 50 µM): 29.94 mg
average activity counts [3, 15]: 224
average activity counts ([3]; 10 µM, 48 h): 201
average activity counts ([3]; 10 µM, 72 h): 224
average activity counts [3, 16]: 226
average activity counts ([3]; 50 µM, 48 h): 198
average activity counts ([3]; 50 µM, 72 h): 218
average activity counts [3, 17]: 217
average activity counts ([3]; 100 µM, 48 h): 199
average activity counts ([3]; 100 µM, 72 h): 206
Average viability (signal intensity relative to control) ([4]; 10 µM): 1 ± 0.03
Average viability (signal intensity relative to control) ([4]; 20 µM): 1.03 ± 0.04
Average viability (signal intensity relative to control) ([4]; 40 µM): 0.98 ± 0.05
Average viability (signal intensity relative to control) ([5]; 10 µM): 1.01 ± 0.04
Average viability (signal intensity relative to control) ([5]; 20 µM): 1.04 ± 0.05
Average viability (signal intensity relative to control) ([5]; 40 µM): 1.01 ± 0.05
average activity counts [6, 15]: 169
average activity counts ([6]; 10 µM, 48 h): 191
average activity counts ([6]; 10 µM, 72 h): 164
average activity counts [6, 16]: 188
average activity counts ([6]; 50 µM, 48 h): 193
average activity counts ([6]; 50 µM, 72 h): 144
average activity counts [6, 17]: 195
average activity counts ([6]; 100 µM, 48 h): 212
average activity counts ([6]; 100 µM, 72 h): 175

IC50 ([2]; Caenorhabditis elegans): 15.2 ± 0.89 µM
SMILES: CC(C)Oc1ccc(-c2ccc3[nH]ccc3c2)cc1 [i-16]

IC50 ([2]; Caenorhabditis elegans): 25 to 50 µM
SMILES: Oc1cc(-c2ccc3[nH]ccc3c2)ccc1Cl [i-24]

SMILES: CC[C@H](C)[C@H]1O[C@]2(CC[C@@H]1C)C[C@@H]1C[C@@H](C/C=C(\C)[C@@H](O[C@H]3C[C@H](OC)[C@@H](O[C@H]4C[C@H](OC)[C@@H](O)[C@H](C)O4)[C@H](C)O3)[C@@H](C)/C=C/C=C3\CO[C@@H]4[C@H](O)C(C)=C[C@@H](C(=O)O1)[C@]34O)O2 [ivermectin, reference compound]
mean score (1-5) [11]: 1
mean score (1-5) [12]: 1
mean score (1-5) [13]: 1.333
mean score (1-5) [14]: 1
